Laboratory results as given in ChEMBL document CHEMBL1138248, “Synthesis and in vitro antiprotozoal activity of bisbenzofuran cations” (J Med Chem, 2007).

Key:
[1] = system: L6; experiment: Cytotoxicity against rat L6 cells
[2] = system: Plasmodium falciparum; experiment: microbe, parasite or virus in culture; details: K1
Description: Antimalarial activity against chloroquine-resistant Plasmodium falciparum K1

[3] = system: Leishmania donovani; experiment: […] activity against Leishmania donovani (MHOM/SD/62/1S-CL2D) axenic amastigotes; type: functional, organism-based
[4] = system: Trypanosoma brucei rhodesiense; experiment: Antitrypanosomal activity against Trypanosoma brucei rhodesiense STIB900; type: functional, organism-based

Row | SMILES | IC50 [1] [µM] | IC50 [2] [µM] | IC50 [3] [µM] | IC50 [4] [µM]
1 | N=C(N)c1ccc2oc(CCc3cc4cc(C(=N)N)ccc4o3)cc2c1 | 21.5 | 0.003 | 1.06 | 0.008
2 | C[C@@H]1CC[C@H]2[C@@H](C)C(=O)O[C@@H]3O[C@@]4(C)CC[C@@H]1[C@]32OO4 [ARTEMISININ] | – | 0.006 | – | –
3 | CCN(CC)CCCC(C)Nc1ccnc2cc(Cl)ccc12 (stereo not drawn) [CHLOROQUINE] | 117 | – | – | –
4 | N=C(N)c1ccc(OCCCCCOc2ccc(C(=N)N)cc2)cc1 [PENTAMIDINE] | – | – | 1.83 | –
5 | COc1cc([C@@H]2c3cc4c(cc3[C@H](O)[C@H]3COC(=O)[C@H]23)OCO4)cc(OC)c1OC [PODOFILOX] | 0.01 | – | – | –
